For one data set, the target named is T1, Cdc7/DBF4 (Homo sapiens, UniProt O00311).
T1 construct: purchased Promega
The experiment in a line: Inhibitory effect against activity of Cdc7/DBF4 (ADP-Glo kinase detection kit). The data set is classed as biochemical. The settings on record: 10 μM ATP, 25° C., 60 min. On the procedure: Cdc7/DBF4 kinase detection kit purchased from Promega; and
(§1) Nivo multi-marker analyzer (PerkinElmer).
An enzyme, a substrate, adenosine triphosphate and an inhibitor were diluted with the kinase buffer in the kit. A test compound was serially 5-fold diluted to an 8th concentration, i.e., from 10 μM to 0.13 nM, with the DMSO concentration being 5%, and the duplicate well experiment was set up. To a microplate were added 1 μL of inhibitors of various concentration gradients, 2 μL of CDCl7/DBF4 kinase (6.25 ng), 2 μL of a mixture of substrate and ATP (10 μM adenosine triphosphate, 0.2 μg/μL substrate), and the final concentration gradient of the compound was diluted from 2 μM to 0.025 nM. The reaction system was left reacting at 25° C. for 60 min. After the reaction was completed, 5 μL of ADP-Glo reagent was added to each well, and the reaction was continued at 25° C. for 40 min. After the reaction was completed, 10 μL of the kinase detection reagent was added to each well. After 30 min of reaction at 25° C., the chemiluminescence was read using the multi-marker analyzer with an integration time of 0.5 s.
The original data were converted to inhibition using the equation (Sample−Min)/(Max−Min)×100%, and the IC50 value was then curve fitted using four parameters (obtained from the “log(inhibitor) vs. response-Variableslope” model in GraphPadPrism). Table 1 provides the enzymatic inhibitory activity of the compounds disclosed herein against Cdc7/DBF4.
For orientation: In ADP-Glo the light output rises with the ADP produced.

The next data set relates to Colo205 cells. The experiment in a line: Inhibitory effect against Colo205 cell proliferation (CellTiter-Glo). The settings on record: incubation 3 days. The data set is classed as cell-based. On the procedure: 1640 medium; fetal bovine serum; penicillin/streptomycin antibiotics purchased from Wisent;
CellTiter-Glo (chemiluminescence detection reagent for cell viability) reagent purchased from Promega;
COL0205 cell line purchased from Wuhan Procell Life Science&Technology Co., Ltd; and
as §1
COL0205 cells were plated on to white 96-well plates by adding 80 μL of cell suspension (containing 3000 COL0205 cells) to each well. The cell plate was incubated in a CO2 incubator overnight.
A test compound was serially 3-fold diluted to an 8th concentration, i.e., from 2 mM to 920 nM, and the duplicate well experiment was set up. 78 μL of medium was added to an intermediate plate, 2 μL of the serially diluted compound was transferred to corresponding wells of the intermediate plate, and after mixing, the mixture was transferred to the cell plate at 20 μL per well. The concentration of the compound transferred to the cell plate ranged from 10 μM to 4.57 nM. The cell plate was incubated in a CO2 incubator for 3 days. Another cell plate was provided for reading signal values on the day of compound addition and these values were used as […] in data analysis. The chemiluminescence detection reagent for cell viability was added to this cell plate at 25 μL per well and the luminescence signals were stabilized by incubation at room temperature for 10 min. Readings were taken using the multi-marker analyzer. The chemiluminescence detection reagent for cell viability was added to the cell plate at 25 μL per well and the luminescence signals were stabilized by incubation at room temperature for 10 min. Readings were taken using the multi-marker analyzer.
The original data were converted to inhibition using the equation (Sample−Min)/(Max−Min)×100%, and the IC50 value was then curve fitted using four parameters (obtained from the “log(inhibitor) vs. response-Variableslope” model in GraphPadPrism). Table 2 provides the inhibitory activity of the compounds disclosed herein against COL0205 cell proliferation.
For orientation: In ATP-based viability assays light output follows the ATP content of the culture.

Data set [1] can be described thus: Single-dose pharmacokinetic study in mice. The settings on record: male CD-1 mice. The format is in vivo. On the procedure: To evaluate the pharmacokinetic behavior by using male CD-1 mice as test animals and determining the drug concentrations of the compounds in the plasma after single-dose administration. Healthy adult male CD-1 mice were selected for intragastric administration. A compound was mixed with an appropriate amount of 5% DMSO/95% (10% hydroxypropyl-β-cyclodextrin), vortexed and sonicated to prepare a 1 mg/mL clear solution for later use. After the mice were administered intravenously at 2 mg/kg and orally at 10 mg/kg, whole blood was collected at certain time points, and plasma was separated. After pretreatment of the samples, the drug concentration was measured by LC-MS/MS, and pharmacokinetic parameters were calculated using Phoenix WinNonlin software.

Data set [2] relates to human colorectal cancer cell SW620. As to the kind of experiment: In vivo pharmacodynamic study in subcutaneous xenograft tumor nude mouse model of SW620. The settings on record: BID, p.o. On the procedure:
Human colorectal cancer cell SW620 cells of the 7th passage were cultured in an L-15 medium containing 10% fetal bovine serum, 100 U/mL penicillin and 100 μg/mL streptomycin through in vitro monolayer culture in an incubator at 37° C./[…] for 4 passages with conventional medium replacement. At a cell saturation of 80-90%, the cells were digested with pancreatin-EDTA, counted and resuspended in PBS at a density of 5×10^6 cells/100 μL.
Cell inoculation: Each mouse was inoculated on the right cervical dorsum with 0.1 mL of the cell suspension of 5×10^6 SW620 cells in PBS. At an average tumor volume up to about 134 mm^3, the mice were randomly grouped and administrated.
Tumor diameters were measured twice weekly using a vernier caliper. The tumor volume was calculated using the following formula: V=0.5 a×b^2, where a and b represent the long diameter and short diameter of the tumor, respectively.
The anti-tumor therapeutic effect of the compound was evaluated by TGI (%) or relative tumor proliferation rate T/C (%). Relative tumor proliferation rate T/C (%)=TRTV/CRTV×100% (TRTV: RTV of treatment group; CRTV: RTV of negative control group). Relative tumor volumes (RTVs) were calculated from the tumor measurement results using the following formula: RTV=Vt/VO, where VO is the average tumor volume measured at the time of grouping (i.e., DO), Vt is the average tumor volume measured at a certain measurement, and TRTV and CRTV are taken from the data measured on the same day.
TGI (%), reflects the tumor growth inhibition rate. TGI (%)=[(1−(average tumor volume at the end of administration in a treatment group−average tumor volume at the start of administration of the treatment group))/(average tumor volume at the end of treatment of the vehicle control group−average tumor volume at the start of treatment of the vehicle control group)]×100%.
After day 22 of the grouping, mice were euthanized, plasma and tumors were sampled and tumors were weighed and photographed.

Setting [3] is: mouse, plasma, IV: 2 mg/kg, PO: 10 mg/kg.

Where a name gives a salt, the structure may show the parent alone. Read-outs that look alike come from different tables or passages of the source.

T1 sequence (O00311 whole entry): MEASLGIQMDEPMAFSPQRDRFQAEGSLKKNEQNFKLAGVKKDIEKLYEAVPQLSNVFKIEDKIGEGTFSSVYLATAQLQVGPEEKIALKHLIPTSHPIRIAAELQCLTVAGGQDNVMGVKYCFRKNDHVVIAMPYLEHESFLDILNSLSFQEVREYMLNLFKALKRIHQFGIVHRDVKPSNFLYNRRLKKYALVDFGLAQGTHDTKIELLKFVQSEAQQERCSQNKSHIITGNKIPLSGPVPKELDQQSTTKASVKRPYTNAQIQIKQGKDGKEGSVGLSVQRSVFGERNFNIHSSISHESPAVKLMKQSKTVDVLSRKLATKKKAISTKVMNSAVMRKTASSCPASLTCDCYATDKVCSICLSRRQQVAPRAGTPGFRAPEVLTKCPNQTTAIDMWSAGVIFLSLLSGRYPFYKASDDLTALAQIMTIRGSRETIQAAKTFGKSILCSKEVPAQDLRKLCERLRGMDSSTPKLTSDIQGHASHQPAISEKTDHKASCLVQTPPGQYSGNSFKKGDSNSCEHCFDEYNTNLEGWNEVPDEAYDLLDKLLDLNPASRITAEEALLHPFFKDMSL
T1 sequence (Q9UBU7 whole entry partner): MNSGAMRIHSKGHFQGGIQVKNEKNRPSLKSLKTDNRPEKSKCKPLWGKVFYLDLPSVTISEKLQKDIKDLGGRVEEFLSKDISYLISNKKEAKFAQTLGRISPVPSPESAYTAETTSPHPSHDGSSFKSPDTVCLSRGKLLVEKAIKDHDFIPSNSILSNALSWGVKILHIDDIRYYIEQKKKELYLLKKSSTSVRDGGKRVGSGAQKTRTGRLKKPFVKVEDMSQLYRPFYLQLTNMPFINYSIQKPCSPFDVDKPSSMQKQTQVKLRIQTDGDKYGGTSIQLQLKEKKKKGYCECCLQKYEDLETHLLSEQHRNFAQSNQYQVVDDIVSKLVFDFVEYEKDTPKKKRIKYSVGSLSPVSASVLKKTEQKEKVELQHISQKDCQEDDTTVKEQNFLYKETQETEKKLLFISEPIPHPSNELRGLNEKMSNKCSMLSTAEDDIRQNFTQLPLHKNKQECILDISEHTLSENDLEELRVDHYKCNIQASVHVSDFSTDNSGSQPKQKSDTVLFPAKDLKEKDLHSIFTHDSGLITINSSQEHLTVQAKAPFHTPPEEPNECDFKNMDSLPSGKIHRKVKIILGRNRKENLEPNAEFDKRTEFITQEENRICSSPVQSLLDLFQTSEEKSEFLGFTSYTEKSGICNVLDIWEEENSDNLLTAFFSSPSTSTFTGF

On to `O=c1[nH]c([C@H]2CC3CCN2CC3)nc2c3c(sc12)-c1c[nH]nc1CCC3` (single isomer, unassigned) [Compound 1-1 hydrochloride], for which the IC50 (in general, the concentration at which inhibition is half-maximal) against Cdc7/DBF4 came to 3.02 nM. The molecule further displayed an IC50 with Colo205 cells of 13.8 nM. Further, the Maximum concentration in data set [1] (IV: 2 mg/kg, PO: 10 mg/kg) is 2230 nM. In data set [1] (mouse, plasma, IV 2 mg/kg, read-out: AUC0-last (intravenous injection)), the AUC(0-t) came out at 2.45 µM·h. For the same molecule, in data set [1] (setting [3]), the bioavailability (in general, the share of a dose that reaches the circulation, judged against a reference dose that is usually intravenous) amounted to 71.4%; the clearance is 35.2 mL/min/kg; the half-life – broadly, the time in which the quantity being followed falls by half – was 4.03 h. In addition, in data set [1] (mouse, plasma, IV: 2 mg/kg, PO: 10 mg/kg, read-out: Apparent volume of distribution), the Vd worked out at 4.13 L/kg. Besides, the AUC(0-t) in data set [1] (mouse, plasma, PO 10 mg/kg, read-out: AUC0-last (oral)) amounted to 9.08 µM·h. Besides, in data set [2] (2.5 mg/kg), the “Tumor volume (Day 1)” value was found to be 134 ± 13 mm^3, the “RTV (Day 21)” value was 1.88, the “T/C (%) (Day 21)” value is reported as 22% and the “TGI (%) (Day 21)” value came out at 89%. Moreover, the “Tumor volume (Day 21)” value in data set [2] (2.5 mg/kg) was 237 ± 27 mm^3. For the same molecule, in data set [2] (5 mg/kg), the “Tumor volume (Day 1)” value worked out at 134 ± 15 mm^3, the “RTV (Day 21)” value is 0.93, the “T/C (%) (Day 21)” value was 11% and the “TGI (%) (Day 21)” value was found to be 100%. For the same molecule, the “Tumor volume (Day 21)” value in data set [2] (5 mg/kg) was found to be 133 ± 32 mm^3. In data set [2] (7.5 mg/kg), the “Tumor volume (Day 1)” value was found to be 134 ± 14 mm^3, the “RTV (Day 21)” value came to 0.31, the “T/C (%) (Day 21)” value was 4% and the “TGI (%) (Day 21)” value was found to be 108%. In addition, the “Tumor volume (Day 21)” value in data set [2] (7.5 mg/kg) is 53 ± 16 mm^3.
